ChEMBL document CHEMBL1201862, “PubChem BioAssay data set” (2004)
Each block holds one compound with its values, some of them ahead of it. The source made the active and inactive calls.

Tests used:
[1] = target: T1, Short transient receptor potential channel 4 (Mus musculus, UniProt Q9QUQ5); assay: potentiation of DAMGO-evoked TRPC4 calcium signal – cell-based, HEK293 TRPC4/mu-opioid, Fluo-4 calcium, EC20 DAMGO, dose response (AID 434941); format: functional
T1 sequence (Q9QUQ5 whole entry): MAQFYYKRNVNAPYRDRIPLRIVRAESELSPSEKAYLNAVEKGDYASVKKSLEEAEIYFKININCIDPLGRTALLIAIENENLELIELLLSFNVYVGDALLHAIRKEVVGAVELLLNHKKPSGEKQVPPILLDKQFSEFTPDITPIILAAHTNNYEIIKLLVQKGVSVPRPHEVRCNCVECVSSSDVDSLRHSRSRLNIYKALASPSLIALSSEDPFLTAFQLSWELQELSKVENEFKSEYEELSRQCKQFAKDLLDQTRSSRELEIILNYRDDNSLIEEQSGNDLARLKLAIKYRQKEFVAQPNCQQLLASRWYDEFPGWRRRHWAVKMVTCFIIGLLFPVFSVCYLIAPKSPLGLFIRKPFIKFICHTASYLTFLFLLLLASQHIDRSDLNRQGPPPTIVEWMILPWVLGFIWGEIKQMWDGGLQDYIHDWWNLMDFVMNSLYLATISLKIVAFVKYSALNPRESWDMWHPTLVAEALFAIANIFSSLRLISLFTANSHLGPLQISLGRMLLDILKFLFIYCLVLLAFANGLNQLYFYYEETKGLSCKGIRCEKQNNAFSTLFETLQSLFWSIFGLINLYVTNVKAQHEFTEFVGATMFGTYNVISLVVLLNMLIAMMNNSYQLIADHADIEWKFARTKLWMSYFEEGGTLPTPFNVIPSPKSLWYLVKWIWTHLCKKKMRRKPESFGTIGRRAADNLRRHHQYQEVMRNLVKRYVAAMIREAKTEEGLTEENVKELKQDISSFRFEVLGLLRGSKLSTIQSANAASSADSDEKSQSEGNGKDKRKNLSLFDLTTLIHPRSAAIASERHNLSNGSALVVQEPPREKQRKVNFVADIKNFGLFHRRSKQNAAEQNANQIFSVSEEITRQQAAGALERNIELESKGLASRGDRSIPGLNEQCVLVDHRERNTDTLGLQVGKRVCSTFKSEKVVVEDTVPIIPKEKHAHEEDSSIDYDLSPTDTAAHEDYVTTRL

Beta-galactosidase = Beta-galactosidase (Escherichia coli, UniProt Q8VNN2); assay: detection-enzyme interference by beta-gal modulators – biochemical, E. coli enzyme, set 3, artefact control for CCR6 antagonist project, dose response (AID 504712); format: functional
Beta-galactosidase, sequence (Q8VNN2 whole entry): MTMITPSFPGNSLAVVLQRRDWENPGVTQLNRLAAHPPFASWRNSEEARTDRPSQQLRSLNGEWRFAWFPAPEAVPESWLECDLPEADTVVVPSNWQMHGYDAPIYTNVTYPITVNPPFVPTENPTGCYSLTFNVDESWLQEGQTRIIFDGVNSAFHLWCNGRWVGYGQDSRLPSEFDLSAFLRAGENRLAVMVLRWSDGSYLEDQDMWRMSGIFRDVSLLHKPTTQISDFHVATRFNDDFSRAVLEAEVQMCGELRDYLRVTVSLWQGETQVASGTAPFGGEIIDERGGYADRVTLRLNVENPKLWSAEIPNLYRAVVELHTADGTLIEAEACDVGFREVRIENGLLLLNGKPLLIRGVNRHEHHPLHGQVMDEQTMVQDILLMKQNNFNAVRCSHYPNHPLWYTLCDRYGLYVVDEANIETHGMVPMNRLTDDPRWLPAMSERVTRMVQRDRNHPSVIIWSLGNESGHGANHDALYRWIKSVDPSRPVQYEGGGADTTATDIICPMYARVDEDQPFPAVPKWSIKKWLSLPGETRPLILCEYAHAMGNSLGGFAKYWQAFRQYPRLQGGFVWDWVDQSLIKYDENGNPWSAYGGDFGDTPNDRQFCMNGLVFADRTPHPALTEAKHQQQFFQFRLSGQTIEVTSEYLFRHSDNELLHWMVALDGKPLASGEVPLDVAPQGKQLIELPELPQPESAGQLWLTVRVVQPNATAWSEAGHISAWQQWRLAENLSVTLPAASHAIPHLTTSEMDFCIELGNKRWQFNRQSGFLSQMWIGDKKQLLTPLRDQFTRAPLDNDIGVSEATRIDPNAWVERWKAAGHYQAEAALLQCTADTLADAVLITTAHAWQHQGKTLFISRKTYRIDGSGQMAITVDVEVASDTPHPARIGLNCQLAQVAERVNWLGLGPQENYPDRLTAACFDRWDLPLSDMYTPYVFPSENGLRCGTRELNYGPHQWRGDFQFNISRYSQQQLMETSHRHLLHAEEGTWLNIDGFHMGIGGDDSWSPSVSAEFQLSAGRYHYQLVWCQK

[2] = target: Potassium voltage-gated channel subfamily KQT member 2 (Rattus norvegicus, UniProt O88943); assay: potentiation of rat KCNQ2 current – cell-based, retigabine-insensitive compounds, dose response (AID 2654); format: functional
Caspase-3 = target: T2, Caspase-3 (Homo sapiens, UniProt P42574); assay: activation of caspase-3 zymogen – biochemical, absorbance, dose response (AID 489014)
T2 sequence (P42574 whole entry): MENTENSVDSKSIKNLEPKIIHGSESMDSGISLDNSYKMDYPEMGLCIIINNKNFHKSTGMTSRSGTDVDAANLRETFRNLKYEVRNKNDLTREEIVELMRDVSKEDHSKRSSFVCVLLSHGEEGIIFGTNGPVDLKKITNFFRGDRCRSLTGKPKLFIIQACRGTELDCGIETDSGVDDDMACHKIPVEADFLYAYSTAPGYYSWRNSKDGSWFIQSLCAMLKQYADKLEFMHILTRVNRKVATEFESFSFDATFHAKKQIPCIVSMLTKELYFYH

Caspase-7 = Caspase-7 (Homo sapiens, UniProt P55210); assay: activation of caspase-7 zymogen – biochemical, absorbance, counter-screen for procaspase-3 activator project, dose response (AID 489013)
Caspase-7, sequence (P55210 24-198 limits assumed): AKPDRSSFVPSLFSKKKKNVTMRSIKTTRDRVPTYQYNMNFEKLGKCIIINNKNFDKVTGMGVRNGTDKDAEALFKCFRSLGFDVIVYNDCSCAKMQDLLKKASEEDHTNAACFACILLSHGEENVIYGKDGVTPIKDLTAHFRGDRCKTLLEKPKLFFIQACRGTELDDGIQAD
Caspase-7, sequence (P55210 207-303 limits assumed): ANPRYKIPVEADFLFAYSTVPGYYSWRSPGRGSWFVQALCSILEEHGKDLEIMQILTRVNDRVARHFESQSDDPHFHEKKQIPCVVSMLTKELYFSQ

[3] = target: 1-phosphatidylinositol 4,5-bisphosphate phosphodiesterase gamma-1 (Homo sapiens, UniProt P19174); assay: Counterscreen for inhibitors of phospholipase C isozymes (PLC-B3): Fluorescence-based biochemical high throughput dose response assay to identify inhibitors of phospholipase C isozymes (PLC-gamma1).
[4] = target: 1-phosphatidylinositol 4,5-bisphosphate phosphodiesterase beta-3 (Homo sapiens, UniProt Q01970); assay: Fluorescence-based biochemical high throughput dose response assay to identify inhibitors of phospholipase C isozymes (PLC-B3).
[5] = target: T3, Intestinal-type alkaline phosphatase (Homo sapiens, UniProt P09923); assay: inhibition of human intestinal alkaline phosphatase – biochemical, dose response (AID 488876); format: functional
T3 sequence (P09923 whole entry): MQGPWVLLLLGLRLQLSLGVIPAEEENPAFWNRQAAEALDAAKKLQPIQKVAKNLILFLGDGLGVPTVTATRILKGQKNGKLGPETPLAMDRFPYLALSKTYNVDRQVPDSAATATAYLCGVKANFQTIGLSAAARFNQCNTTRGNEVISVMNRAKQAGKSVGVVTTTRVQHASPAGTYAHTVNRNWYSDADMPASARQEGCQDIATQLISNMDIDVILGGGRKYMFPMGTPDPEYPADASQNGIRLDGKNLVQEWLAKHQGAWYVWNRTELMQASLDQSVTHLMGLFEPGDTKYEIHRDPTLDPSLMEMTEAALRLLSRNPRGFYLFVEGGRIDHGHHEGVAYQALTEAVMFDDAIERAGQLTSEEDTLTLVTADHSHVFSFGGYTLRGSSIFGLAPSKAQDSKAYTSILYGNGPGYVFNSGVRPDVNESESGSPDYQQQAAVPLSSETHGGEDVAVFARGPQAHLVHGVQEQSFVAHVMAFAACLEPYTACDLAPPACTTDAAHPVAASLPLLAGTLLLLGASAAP

[6] = target: Intestinal-type alkaline phosphatase (Mus musculus, UniProt P24822); assay: PubChem AID 488785; format: functional
Intestinal-type alkaline phosphatase (Mus musculus, UniProt P24822), sequence (P24822 whole entry): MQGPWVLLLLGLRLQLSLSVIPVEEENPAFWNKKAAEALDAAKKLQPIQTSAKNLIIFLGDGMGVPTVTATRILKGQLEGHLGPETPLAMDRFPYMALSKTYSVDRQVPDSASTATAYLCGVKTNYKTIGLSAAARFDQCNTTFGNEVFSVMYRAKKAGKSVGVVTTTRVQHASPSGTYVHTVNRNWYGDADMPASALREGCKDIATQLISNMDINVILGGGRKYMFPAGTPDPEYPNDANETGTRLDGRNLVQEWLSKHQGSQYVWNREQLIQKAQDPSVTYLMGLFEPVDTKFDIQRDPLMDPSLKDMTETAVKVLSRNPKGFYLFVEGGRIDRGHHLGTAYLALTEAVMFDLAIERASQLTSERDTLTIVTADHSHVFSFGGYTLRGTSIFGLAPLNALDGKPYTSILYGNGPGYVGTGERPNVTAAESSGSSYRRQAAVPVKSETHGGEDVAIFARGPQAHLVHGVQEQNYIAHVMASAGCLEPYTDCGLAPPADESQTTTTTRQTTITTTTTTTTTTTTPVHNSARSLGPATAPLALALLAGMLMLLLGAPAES

ORF 73 = ORF 73 (Human herpesvirus 8, UniProt O40947); assay: KSHV LANA DNA-binding disruption – biochemical, fluorescence polarization, cherry-picked samples, dose response (AID 504725); set-up: species or system Human gammaherpesvirus 8;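 also: fluorescence polarization of a labeled DNA duplex reporting LANA DNA binding; potency is for inhibitors that block LANA binding to the DNA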
ORF 73, sequence (O40947 whole entry): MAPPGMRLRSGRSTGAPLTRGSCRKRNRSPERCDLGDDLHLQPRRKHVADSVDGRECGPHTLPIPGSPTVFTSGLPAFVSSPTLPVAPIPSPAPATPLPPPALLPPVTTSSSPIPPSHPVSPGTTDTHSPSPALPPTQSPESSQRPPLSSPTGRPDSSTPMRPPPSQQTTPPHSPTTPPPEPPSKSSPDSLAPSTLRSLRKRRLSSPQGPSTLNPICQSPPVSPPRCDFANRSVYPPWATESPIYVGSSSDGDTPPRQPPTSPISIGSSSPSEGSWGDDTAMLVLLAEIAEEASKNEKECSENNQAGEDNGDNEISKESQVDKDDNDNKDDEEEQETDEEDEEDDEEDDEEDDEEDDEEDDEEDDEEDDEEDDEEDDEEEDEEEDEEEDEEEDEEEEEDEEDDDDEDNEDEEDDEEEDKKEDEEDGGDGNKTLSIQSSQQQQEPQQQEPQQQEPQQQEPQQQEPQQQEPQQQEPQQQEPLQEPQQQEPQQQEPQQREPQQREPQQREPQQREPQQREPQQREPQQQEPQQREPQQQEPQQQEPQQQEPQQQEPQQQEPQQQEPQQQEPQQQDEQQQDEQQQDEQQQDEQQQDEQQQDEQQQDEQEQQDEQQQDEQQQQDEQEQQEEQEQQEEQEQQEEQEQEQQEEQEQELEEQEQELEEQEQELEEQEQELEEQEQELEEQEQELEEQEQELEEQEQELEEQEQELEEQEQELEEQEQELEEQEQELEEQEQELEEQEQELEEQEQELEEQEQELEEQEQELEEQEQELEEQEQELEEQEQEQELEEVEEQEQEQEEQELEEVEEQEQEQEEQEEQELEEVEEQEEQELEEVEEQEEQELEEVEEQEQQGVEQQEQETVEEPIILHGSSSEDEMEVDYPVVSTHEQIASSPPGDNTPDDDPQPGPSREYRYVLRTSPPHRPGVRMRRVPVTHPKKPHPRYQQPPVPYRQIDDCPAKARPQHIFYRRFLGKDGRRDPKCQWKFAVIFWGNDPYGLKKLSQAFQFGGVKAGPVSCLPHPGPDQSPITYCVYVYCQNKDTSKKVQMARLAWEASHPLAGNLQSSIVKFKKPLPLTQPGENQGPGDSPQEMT

[7] = target: T4, Alkaline phosphatase, tissue-nonspecific isozyme (Homo sapiens, UniProt P05186); assay: TNAP enzyme inhibition by screening hits, dose response, selectivity assay for mouse IAP inhibitor project, biochemical, human TNAP, uHTS hits (AID 488906); format: functional
T4 sequence (P05186 whole entry): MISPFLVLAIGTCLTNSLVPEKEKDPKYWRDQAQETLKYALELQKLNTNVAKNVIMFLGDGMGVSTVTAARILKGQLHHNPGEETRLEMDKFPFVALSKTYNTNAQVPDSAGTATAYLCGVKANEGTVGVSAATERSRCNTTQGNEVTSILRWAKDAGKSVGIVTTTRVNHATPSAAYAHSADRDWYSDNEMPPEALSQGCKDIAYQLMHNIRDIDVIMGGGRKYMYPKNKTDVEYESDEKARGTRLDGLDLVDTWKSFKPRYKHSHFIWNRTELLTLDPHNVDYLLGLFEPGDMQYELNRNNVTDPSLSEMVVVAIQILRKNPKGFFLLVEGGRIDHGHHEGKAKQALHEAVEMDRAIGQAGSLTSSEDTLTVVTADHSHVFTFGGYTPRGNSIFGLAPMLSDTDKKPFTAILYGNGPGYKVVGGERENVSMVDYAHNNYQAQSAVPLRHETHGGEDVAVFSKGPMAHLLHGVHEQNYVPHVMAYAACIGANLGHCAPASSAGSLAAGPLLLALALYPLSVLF

[8] = target: T5, Histone-lysine N-methyltransferase NSD2 (Homo sapiens, UniProt O96028); format: biochemical
T5 sequence (O96028 whole entry): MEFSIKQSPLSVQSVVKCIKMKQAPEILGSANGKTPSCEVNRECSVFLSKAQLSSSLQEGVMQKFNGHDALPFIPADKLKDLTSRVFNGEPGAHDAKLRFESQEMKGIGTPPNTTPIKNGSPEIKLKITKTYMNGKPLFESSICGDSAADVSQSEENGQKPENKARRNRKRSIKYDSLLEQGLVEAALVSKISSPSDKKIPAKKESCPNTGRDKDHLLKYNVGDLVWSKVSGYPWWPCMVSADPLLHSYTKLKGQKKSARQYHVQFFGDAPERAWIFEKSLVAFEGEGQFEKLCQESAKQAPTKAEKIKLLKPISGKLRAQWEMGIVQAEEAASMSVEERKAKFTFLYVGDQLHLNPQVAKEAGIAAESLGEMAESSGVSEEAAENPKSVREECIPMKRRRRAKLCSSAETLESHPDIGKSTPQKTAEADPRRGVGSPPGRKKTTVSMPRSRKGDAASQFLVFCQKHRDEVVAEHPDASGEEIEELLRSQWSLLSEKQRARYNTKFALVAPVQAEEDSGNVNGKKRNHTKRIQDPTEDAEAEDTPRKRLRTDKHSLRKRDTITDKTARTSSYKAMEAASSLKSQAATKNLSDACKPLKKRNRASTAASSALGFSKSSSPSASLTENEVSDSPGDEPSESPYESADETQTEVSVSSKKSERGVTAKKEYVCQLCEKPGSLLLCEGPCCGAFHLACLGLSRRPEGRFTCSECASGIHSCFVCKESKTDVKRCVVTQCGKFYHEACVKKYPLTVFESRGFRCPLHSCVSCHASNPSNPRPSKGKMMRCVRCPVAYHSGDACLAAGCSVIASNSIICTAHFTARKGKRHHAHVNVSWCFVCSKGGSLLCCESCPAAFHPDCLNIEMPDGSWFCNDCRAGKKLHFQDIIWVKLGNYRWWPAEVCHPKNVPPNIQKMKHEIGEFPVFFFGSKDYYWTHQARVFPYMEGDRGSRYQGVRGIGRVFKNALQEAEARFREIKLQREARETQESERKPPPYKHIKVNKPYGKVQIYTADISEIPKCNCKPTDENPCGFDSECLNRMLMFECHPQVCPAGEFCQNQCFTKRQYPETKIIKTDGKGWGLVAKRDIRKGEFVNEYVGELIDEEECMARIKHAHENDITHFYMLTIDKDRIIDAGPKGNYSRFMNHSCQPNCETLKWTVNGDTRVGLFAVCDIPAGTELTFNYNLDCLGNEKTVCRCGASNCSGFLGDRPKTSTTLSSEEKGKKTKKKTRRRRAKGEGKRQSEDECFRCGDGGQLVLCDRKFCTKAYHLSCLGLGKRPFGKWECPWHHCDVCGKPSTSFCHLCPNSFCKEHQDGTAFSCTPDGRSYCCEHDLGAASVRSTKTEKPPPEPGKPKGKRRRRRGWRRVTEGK

[9] = target: Alkaline phosphatase, placental type (Homo sapiens, UniProt P05187); assay: human placental alkaline phosphatase inhibition – biochemical, luminescence, confirmation (AID 1512); format: functional
[10] = target: T3, Intestinal-type alkaline phosphatase; assay: Dose Response confirmation of uHTS hits from a small molecule inhibitors of human intestinal alkaline phosphatase via a luminescent assay. [Related pubchem assays (depositor defined):AID2544, AID2574]; format: functional
[11] = target: T4, Alkaline phosphatase, tissue-nonspecific isozyme; assay: potency against alkaline phosphatase TNAP – biochemical, luminescent, dose response, SAR follow-up (AID 1056)
Phosphomannomutase 2 = Phosphomannomutase 2 (Homo sapiens, UniProt O15305); assay: Counter screen SAR assay for PMM2 inhibitors via a fluorescence intensity assay. [Related pubchem assays (depositor defined):AID1545, AID1574]
Phosphomannomutase 2, sequence (O15305 whole entry): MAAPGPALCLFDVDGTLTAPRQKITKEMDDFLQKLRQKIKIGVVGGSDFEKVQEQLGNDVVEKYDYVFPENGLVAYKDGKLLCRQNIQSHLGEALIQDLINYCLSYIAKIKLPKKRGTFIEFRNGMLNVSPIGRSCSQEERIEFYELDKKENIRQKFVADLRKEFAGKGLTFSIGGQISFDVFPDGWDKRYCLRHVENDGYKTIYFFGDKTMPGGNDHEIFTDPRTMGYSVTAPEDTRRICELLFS

[12] = target: DNA dC->dU-editing enzyme APOBEC-3A (Homo sapiens, UniProt P31941); assay: A3A deaminase inhibition for selectivity – biochemical, dose response (AID 504722); format: functional
DNA dC->dU-editing enzyme APOBEC-3A, sequence (P31941 whole entry): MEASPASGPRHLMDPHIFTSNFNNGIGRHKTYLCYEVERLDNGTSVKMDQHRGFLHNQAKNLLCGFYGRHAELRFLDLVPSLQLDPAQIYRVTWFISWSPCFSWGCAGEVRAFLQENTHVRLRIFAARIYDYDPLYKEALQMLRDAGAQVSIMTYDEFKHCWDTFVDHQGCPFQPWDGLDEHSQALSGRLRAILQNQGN

[13] = target: Phosphoethanolamine/phosphocholine phosphatase (Homo sapiens, UniProt Q8TCT1); assay: SAR assay for compounds that inhibit PHOSPHO1. [Related pubchem assays (depositor defined):AID1545, AID1565, AID1574]
[14] = target: Glucose-6-phosphate 1-dehydrogenase (Homo sapiens, UniProt P11413); assay: inhibition of Homo sapiens G6PD, dose series – biochemical, fluorescence, selectivity assay for P. falciparum G6PD inhibitor project, dose response (AID 504792); format: functional
Glucose-6-phosphate 1-dehydrogenase, sequence (P11413 whole entry): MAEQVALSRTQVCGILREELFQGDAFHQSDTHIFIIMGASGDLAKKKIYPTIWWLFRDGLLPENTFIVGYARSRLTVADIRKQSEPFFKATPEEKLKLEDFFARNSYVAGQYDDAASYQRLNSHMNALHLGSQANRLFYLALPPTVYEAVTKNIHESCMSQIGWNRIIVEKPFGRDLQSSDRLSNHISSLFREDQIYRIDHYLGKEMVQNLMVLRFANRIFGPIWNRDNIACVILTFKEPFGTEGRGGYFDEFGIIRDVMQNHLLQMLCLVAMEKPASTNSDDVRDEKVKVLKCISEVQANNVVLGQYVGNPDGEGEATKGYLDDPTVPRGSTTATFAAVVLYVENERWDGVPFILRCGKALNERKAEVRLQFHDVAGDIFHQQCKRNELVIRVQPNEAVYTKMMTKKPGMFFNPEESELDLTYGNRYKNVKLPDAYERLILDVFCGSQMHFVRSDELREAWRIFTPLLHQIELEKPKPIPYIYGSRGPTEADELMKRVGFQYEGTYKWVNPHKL

[15] = target: DNA dC->dU-editing enzyme APOBEC-3G (Homo sapiens, UniProt Q9HC16); assay: Dose Response confirmation of small molecule APOBEC3G DNA Deaminase Inhibitors via a fluorescence-based single-stranded DNA deaminase assay. [Related pubchem assays (depositor defined):AID493012, AID493028]; format: functional
DNA dC->dU-editing enzyme APOBEC-3G, sequence (Q9HC16 whole entry): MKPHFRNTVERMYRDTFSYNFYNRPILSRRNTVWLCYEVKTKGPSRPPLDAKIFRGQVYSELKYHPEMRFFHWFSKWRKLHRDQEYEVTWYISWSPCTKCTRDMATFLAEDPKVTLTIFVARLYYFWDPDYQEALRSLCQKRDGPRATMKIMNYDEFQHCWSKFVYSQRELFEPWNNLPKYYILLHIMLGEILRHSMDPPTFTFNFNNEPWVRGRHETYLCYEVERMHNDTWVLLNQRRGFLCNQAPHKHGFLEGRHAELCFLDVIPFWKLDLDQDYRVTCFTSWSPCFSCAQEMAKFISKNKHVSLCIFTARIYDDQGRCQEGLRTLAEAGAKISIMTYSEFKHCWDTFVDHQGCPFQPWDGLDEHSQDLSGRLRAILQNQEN

Coagulation factor XII = target: T6, Coagulation factor XII (Homo sapiens, UniProt P00748); assay: activated coagulation factor XII inhibitor potency, concentration-effect curve, cell-free (AID 716); format: functional
T6 sequence (P00748 whole entry): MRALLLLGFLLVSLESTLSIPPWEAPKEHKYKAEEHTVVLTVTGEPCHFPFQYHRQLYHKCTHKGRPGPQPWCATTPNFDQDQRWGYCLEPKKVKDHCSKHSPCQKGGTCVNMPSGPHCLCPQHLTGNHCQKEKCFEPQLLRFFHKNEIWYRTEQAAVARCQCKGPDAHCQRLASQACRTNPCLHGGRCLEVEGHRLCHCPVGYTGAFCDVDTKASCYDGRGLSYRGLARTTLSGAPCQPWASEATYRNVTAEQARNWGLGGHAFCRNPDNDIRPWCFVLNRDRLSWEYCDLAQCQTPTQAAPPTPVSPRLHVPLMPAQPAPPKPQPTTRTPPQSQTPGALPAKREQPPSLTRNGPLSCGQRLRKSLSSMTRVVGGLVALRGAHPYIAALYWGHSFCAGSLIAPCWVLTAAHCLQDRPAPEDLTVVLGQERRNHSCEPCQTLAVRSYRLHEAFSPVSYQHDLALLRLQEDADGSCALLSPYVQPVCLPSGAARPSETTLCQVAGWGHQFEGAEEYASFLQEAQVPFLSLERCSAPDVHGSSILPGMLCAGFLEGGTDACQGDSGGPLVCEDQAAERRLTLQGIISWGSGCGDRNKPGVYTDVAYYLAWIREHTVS

SMILES: CC1(C)CC(=O)C2=C(C1)c1c(ccc3ccccc13)NC2c1ccc(Br)o1 (configuration not stated)
EC50 (Caspase-3): > 85.2 µM (inactive) | EC50 (Caspase-7): > 85.2 µM (inactive)

SMILES: Cc1cc2nc(C3CCN(Cc4nnnn4Cc4cccs4)CC3)[nH]c2cc1C
IC50 [9]: 2.73 µM (active) | IC50 [10]: > 100 µM (inactive) | IC50 [11]: 5.64 µM (active)

SMILES: O=c1c2cc(F)ccc2sn1-c1ccc(F)cc1
IC50 (Phosphomannomutase 2): 86.9 µM (active) | IC50 [12]: > 100 µM (inactive) | IC50 [13]: > 10 µM (inactive) | IC50 [14]: 16.7 µM (active) | IC50 [15]: 15.5 µM (active) | IC50 [11]: > 100 µM (inactive)

SMILES: CCOC(=O)CSc1nnc(CNC(=O)Cc2ccccc2)n1C
IC50 (Coagulation factor XII): > 50 µM (inactive)

The remaining lines, values ahead:

EC50 [1]: 0.47 µM (active)
SMILES: COc1ccc(/N=C(\C)C2=C(O)C(=O)N(CCO)C2c2ccc([N+](=O)[O-])cc2)cc1 (configuration not stated)

IC50 (Beta-galactosidase): > 66.6 µM (inactive)
SMILES: CCCOc1cccc(C(=O)NC(=S)Nc2cccc(C(F)(F)F)c2)c1

EC50 [2]: 10.7 µM (active)
SMILES: Cc1cc(C)cc(NC(=O)Nc2cccnc2)c1

IC50 [3]: > 122 µM (inactive) | IC50 [4]: > 122 µM (inactive) | IC50 [5]: > 100 µM (inactive) | IC50 [6]: 6.43 µM (active) | AC50 (ORF 73): 47.2 µM (active) | IC50 [7]: > 100 µM (inactive) | AC50 [8]: 16.1 µM (active)
SMILES: O=C(CCCN1C(=O)/C(=C\c2ccco2)SC1=S)Nc1ccc(O)cc1C(=O)O
